# In US12540118B2, “Dendrene amide compound, bactericide and use thereof” (Jiangsu Flag Chemical Industry Co., Ltd., priority 2020, dated 2026):
# What was measured:
# succinate dehydrogenase = target: T1, succinate dehydrogenase (Sus scrofa, UniProt A5GZW8+D0VWV4+Q007T0); test: Enzyme activity assay, succinate dehydrogenase (DCIP reduction); type: biochemical, porcine; conditions: read-out: Inhibitors (10 μM, SQR)
# T1 construct: isolated from porcine hearts; from tissue; host or cells: porcine heart
# T1 sequence (Q0QF01 43-664 partner): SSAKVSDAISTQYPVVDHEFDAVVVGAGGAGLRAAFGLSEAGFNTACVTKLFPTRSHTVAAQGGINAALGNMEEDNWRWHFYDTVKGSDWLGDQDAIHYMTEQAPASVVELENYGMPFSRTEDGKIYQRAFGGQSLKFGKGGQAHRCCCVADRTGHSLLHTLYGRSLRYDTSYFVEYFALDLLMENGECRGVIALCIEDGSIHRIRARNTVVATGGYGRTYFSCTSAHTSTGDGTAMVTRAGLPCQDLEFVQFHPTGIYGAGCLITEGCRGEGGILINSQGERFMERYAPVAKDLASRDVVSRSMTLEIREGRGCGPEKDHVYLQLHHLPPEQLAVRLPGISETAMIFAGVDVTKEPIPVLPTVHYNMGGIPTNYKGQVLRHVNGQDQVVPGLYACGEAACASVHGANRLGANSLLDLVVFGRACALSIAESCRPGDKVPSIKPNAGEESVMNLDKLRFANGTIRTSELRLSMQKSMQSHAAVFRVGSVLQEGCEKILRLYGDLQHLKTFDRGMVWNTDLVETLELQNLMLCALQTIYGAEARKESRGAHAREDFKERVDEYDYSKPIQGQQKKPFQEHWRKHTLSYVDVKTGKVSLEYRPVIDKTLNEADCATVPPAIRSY
# T1 sequence (Q007T0 29-280): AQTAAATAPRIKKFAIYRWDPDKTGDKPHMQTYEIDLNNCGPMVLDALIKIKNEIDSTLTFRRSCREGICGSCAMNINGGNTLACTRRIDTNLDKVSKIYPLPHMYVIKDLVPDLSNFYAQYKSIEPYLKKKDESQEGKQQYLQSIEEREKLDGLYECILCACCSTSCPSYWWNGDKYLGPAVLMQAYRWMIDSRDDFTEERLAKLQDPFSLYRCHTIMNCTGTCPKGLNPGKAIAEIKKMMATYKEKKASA
# T1 sequence (D0VWV4 30-169): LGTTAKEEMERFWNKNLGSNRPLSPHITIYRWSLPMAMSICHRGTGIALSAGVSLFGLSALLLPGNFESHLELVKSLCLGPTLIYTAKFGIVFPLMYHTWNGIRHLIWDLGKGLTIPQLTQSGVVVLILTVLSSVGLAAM
# T1 sequence (A5GZW8 57-159 limits assumed): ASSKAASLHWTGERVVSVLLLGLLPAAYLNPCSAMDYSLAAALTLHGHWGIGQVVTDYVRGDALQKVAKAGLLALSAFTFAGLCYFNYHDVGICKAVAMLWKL
# Method: The inhibitory activities of control agents and target compounds on succinate dehydrogenase are determined.
# The enzyme used in this test example is succinate dehydrogenase, which is isolated from porcine hearts.
# The test method comprises the following steps: The total volume of the system is 1.8 ml, and the system contained 100 mM Na2HPO4—NaH2PO4 buffer (pH=7.4), 0.3 mM EDTA, 20 mM sodium succinate, 53 μM DCIP (2,6-dichloroindophenol sodium), and 2 nM succinate dehydrogenase. Thermostatic waterbath at 23° C. and magnetic stirring at 600 rpm. The decrease in the light absorption of the substrate DCIP is monitored at a wavelength of 600 nm and experimental points in a linear range are collected. Control substrate consumption not more than 5% of the experimental points. The molar extinction coefficient of DCIP is 21 mM^−1 cm^−1. And calculating the reduction yield of the DCIP in the reaction time, fitting a linear slope, and deducting the baseline slope to obtain the initial reaction speed.
# Erysiphe graminis = Erysiphe graminis potting method; type: in vivo; conditions: Blumeria graminis; 100 mg/L; read-out: Erysiphe graminis control rating
# Method: The fungicidal activity of the control agents and target compounds are determined. The test and investigation method refers to SOP-SC-1116 Erysiphe graminis potting method in disinfectant rolls written by KANGZHUO and GUBAOGEN in “Standard operation specification for testing biological activity of pesticides”.
# Sphaerotheca fuliginea = Sphaerotheca fuliginea potting method; type: in vivo; conditions: Podosphaera fuliginea; 100 mg/L; read-out: Sphaerotheca fuliginea control rating
# Method: The fungicidal activity of the control agents and target compounds are determined. The test and investigation method refers to SOP-SC-1101 sphaerotheca fuliginea potting method in disinfectant rolls written by KANGZHUO and GUBAOGEN in “Standard operation specification for testing biological activity of pesticides”.
Structure (SMILES),inhibition at 10 µM (succinate dehydrogenase) [%],pest or weed control at 100 µg/mL (Erysiphe graminis) [%],pest or weed control at 100 µg/mL (Sphaerotheca fuliginea) [%]
C=C(CN(C(=O)c1c(C(F)F)nn(C)c1F)C1CC1)c1cccc(Br)c1Br [Compound 86],> 90,80 to 100,80 to 100
C=C(c1ccccc1C)C(C)N(C(=O)c1c(C(F)F)nn(C)c1F)C1CC1 (stereo not drawn) [Compound 87],> 90,80 to 100,80 to 100
C=C(c1ccc(C)cc1C)C(C)N(C(=O)c1c(C(F)F)nn(C)c1F)C1CC1 (stereo not drawn) [Compound 88],> 90,80 to 100,80 to 100
C=C(c1cc(C)ccc1C)C(C)N(C(=O)c1c(C(F)F)nn(C)c1F)C1CC1 (stereo not drawn) [Compound 89],> 90,80 to 100,80 to 100
C=C(c1c(C)cccc1C)C(C)N(C(=O)c1c(C(F)F)nn(C)c1F)C1CC1 (stereo not drawn) [Compound 90],> 90,80 to 100,80 to 100
C=C(c1c(C)cc(C)cc1C)C(C)N(C(=O)c1c(C(F)F)nn(C)c1F)C1CC1 (stereo not drawn) [Compound 91],> 90,80 to 100,80 to 100
C=C(c1cc(C(C)C)ccc1C)C(C)N(C(=O)c1c(C(F)F)nn(C)c1F)C1CC1 (stereo not drawn) [Compound 92],> 90,80 to 100,80 to 100
C=C(c1cc(C)ccc1C(C)C)C(C)N(C(=O)c1c(C(F)F)nn(C)c1F)C1CC1 (stereo not drawn) [Compound 93],> 90,80 to 100,80 to 100
C=C(c1cc(C)ccc1C(C)(C)C)C(C)N(C(=O)c1c(C(F)F)nn(C)c1F)C1CC1 (stereo not drawn) [Compound 94],> 90,80 to 100,80 to 100
C=C(c1cc(C(C)(C)C)ccc1C)C(C)N(C(=O)c1c(C(F)F)nn(C)c1F)C1CC1 (stereo not drawn) [Compound 95],> 90,80 to 100,80 to 100
C=C(c1ccc(C(C)C)cc1C)C(C)N(C(=O)c1c(C(F)F)nn(C)c1F)C1CC1 (stereo not drawn) [Compound 96],> 90,80 to 100,80 to 100
C=C(c1ccc(Cl)cc1F)C(C)N(C(=O)c1c(C(F)F)nn(C)c1F)C1CC1 (stereo not drawn) [Compound 97],> 90,80 to 100,80 to 100
C=C(c1ccc(F)cc1Cl)C(C)N(C(=O)c1c(C(F)F)nn(C)c1F)C1CC1 (stereo not drawn) [Compound 98],> 90,80 to 100,80 to 100
C=C(c1cc(Cl)ccc1F)C(C)N(C(=O)c1c(C(F)F)nn(C)c1F)C1CC1 (stereo not drawn) [Compound 99],> 90,80 to 100,80 to 100
C=C(c1cc(C(F)(F)F)ccc1Cl)C(C)N(C(=O)c1c(C(F)F)nn(C)c1F)C1CC1 (stereo not drawn) [Compound 100],> 90,80 to 100,80 to 100
C=C(c1cccc(C(F)(F)F)c1Cl)C(C)N(C(=O)c1c(C(F)F)nn(C)c1F)C1CC1 (stereo not drawn) [Compound 101],> 90,80 to 100,80 to 100
C=C(c1ccc(C(F)(F)F)cc1Cl)C(C)N(C(=O)c1c(C(F)F)nn(C)c1F)C1CC1 (stereo not drawn) [Compound 102],> 90,80 to 100,80 to 100
C=C(c1ccc(S(C)(=O)=O)cc1Cl)C(C)N(C(=O)c1c(C(F)F)nn(C)c1F)C1CC1 (stereo not drawn) [Compound 103],> 90,80 to 100,80 to 100
C=C(c1cccc(S(C)(=O)=O)c1)C(C)N(C(=O)c1c(C(F)F)nn(C)c1F)C1CC1 (stereo not drawn) [Compound 104],> 90,80 to 100,80 to 100
C=C(c1ccccc1S(C)(=O)=O)C(C)N(C(=O)c1c(C(F)F)nn(C)c1F)C1CC1 (stereo not drawn) [Compound 105],> 90,80 to 100,80 to 100
C=C(c1cc(S(C)(=O)=O)ccc1Cl)C(C)N(C(=O)c1c(C(F)F)nn(C)c1F)C1CC1 (stereo not drawn) [Compound 106],> 90,80 to 100,80 to 100

Structure (SMILES),inhibition at 10 µM (succinate dehydrogenase) [%],pest or weed control at 100 µg/mL (Erysiphe graminis) [%],pest or weed control at 100 µg/mL (Sphaerotheca fuliginea) [%]
C=C(c1ccc(S(=O)(=O)CC)cc1)C(C)N(C(=O)c1c(C(F)F)nn(C)c1F)C1CC1 (stereo not drawn) [Compound 107],> 90,80 to 100,80 to 100
C=C(c1cccc(S(=O)(=O)CC)c1)C(C)N(C(=O)c1c(C(F)F)nn(C)c1F)C1CC1 (stereo not drawn) [Compound 108],> 90,80 to 100,80 to 100
C=C(c1ccc(C#CC2CC2)cc1F)C(C)N(C(=O)c1c(C(F)F)nn(C)c1F)C1CC1 (stereo not drawn) [Compound 110],> 90,80 to 100,80 to 100
Cn1nc(C(F)F)c(C(=O)N(CC(=C(Cl)Cl)c2ccccc2)C2CC2)c1F [Compound 111],> 90,80 to 100,80 to 100
Cn1nc(C(F)F)c(C(=O)N(CC(=C(Cl)Cl)c2ccc(Cl)cc2)C2CC2)c1F [Compound 112],> 90,80 to 100,80 to 100
Cn1nc(C(F)F)c(C(=O)N(CC(=C(Cl)Cl)c2ccc(Cl)cc2)C2CC2)c1Cl [Compound 113],> 90,80 to 100,80 to 100
Cn1cc(C(=O)N(CC(=C(Cl)Cl)c2ccc(Cl)cc2)C2CC2)c(C(F)F)n1 [Compound 114],> 90,80 to 100,80 to 100
Cn1nc(C(F)F)c(C(=O)N(CC(=C(Cl)Cl)c2ccccc2F)C2CC2)c1F [Compound 115],> 90,80 to 100,80 to 100
Cn1nc(C(F)F)c(C(=O)N(CC(=C(Cl)Cl)c2ccccc2Cl)C2CC2)c1F [Compound 116],> 90,80 to 100,80 to 100
Cn1nc(C(F)F)c(C(=O)N(CC(=C(Cl)Cl)c2cccc(Cl)c2)C2CC2)c1F [Compound 117],> 90,80 to 100,80 to 100
Cn1nc(C(F)F)c(C(=O)N(CC(=C(Cl)Cl)c2ccc(Cl)cc2Cl)C2CC2)c1F [Compound 118],> 90,80 to 100,80 to 100
Cn1nc(C(F)F)c(C(=O)N(CC(=C(Cl)Cl)c2cc(Cl)ccc2Cl)C2CC2)c1F [Compound 119],> 90,80 to 100,80 to 100
Cn1nc(C(F)F)c(C(=O)N(CC(=C(Cl)Cl)c2c(Cl)cccc2Cl)C2CC2)c1F [Compound 120],> 90,80 to 100,80 to 100
Cn1nc(C(F)F)c(C(=O)N(CC(=C(Cl)Cl)c2ccc(Cl)c(Cl)c2)C2CC2)c1F [Compound 121],> 90,80 to 100,80 to 100
Cn1nc(C(F)F)c(C(=O)N(CC(=C(Cl)Cl)c2cc(Cl)cc(Cl)c2)C2CC2)c1F [Compound 122],> 90,80 to 100,80 to 100
Cn1nc(C(F)F)c(C(=O)N(CC(=C(Cl)Cl)c2c(Cl)cc(Cl)cc2Cl)C2CC2)c1F [Compound 123],> 90,80 to 100,80 to 100
Cn1nc(C(F)F)c(C(=O)N(CC(=C(Cl)Cl)c2cccc(F)c2)C2CC2)c1F [Compound 124],> 90,80 to 100,80 to 100
Cn1nc(C(F)F)c(C(=O)N(CC(=C(Cl)Cl)c2ccc(F)cc2F)C2CC2)c1F [Compound 126],> 90,80 to 100,80 to 100
Cn1nc(C(F)F)c(C(=O)N(CC(=C(Cl)Cl)c2cc(F)ccc2F)C2CC2)c1F [Compound 127],> 90,80 to 100,80 to 100
Cn1nc(C(F)F)c(C(=O)N(CC(=C(Cl)Cl)c2c(F)cccc2F)C2CC2)c1F [Compound 128],> 90,80 to 100,80 to 100
Cn1nc(C(F)F)c(C(=O)N(CC(=C(Cl)Cl)c2c(F)cc(F)cc2F)C2CC2)c1F [Compound 129],> 90,80 to 100,80 to 100
